Read-outs that look alike come from different tables or passages of the source. Marks after values point to notes of the source that are not given here.

The test system of data set [1] is LNCaP human prostate carcinoma xenografts. The protocol:
LNCaP human prostate carcinoma cells express high levels of CD10 on the surface. Suc-βAla-Leu-Ala-Leu-Dox and Suc-Leu-Ala-Gly-Dox were tested at a single dose level Q7Dx5. […] The mice were weighed and tumors were measured (by caliper) at least once a week prior to start of dosing (Day 0), then twice a week during the study. Immediately before the start of dosing (Study Day −2 to Day 0), mice were randomized to various groups based on the weight of the tumors. […] Mice were euthanized after the tumors reached a cutoff weight of 1.5 g (cancer endpoint), or when mice suffered over 25% weight loss (toxic endpoint). Studies were terminated at Day 60.

The subject of data set [2] is CD10 transfected CHO cells, Clone #8. Kind of data set: 3H thymidine proliferation assay, CD10 transfected CHO Clone #8.
Protocol: The fully assembled coding region was sub-cloned into a mammalian expression vector, downstream of the hCMV-MIE promoter. DNA sequence analysis confirmed sequence identity with the coding sequence of human CD10 (Genbank accession number Y00811). The expression plasmid was linearized and stably transfected into CHO—S cells. CD10 expressing transfectant clones were selected under 500 ug/mL of hygromycin and screened by flow cytometry for cell-surface CD10 expression using a commercially available anti-CD10-FITC antibody.
Data set [3] deals with PC-3 (prostate carcinoma) cells. Put plainly: cells. The format is cell-based, human. The procedure: (§1) Adherent cells, LNCaP (prostate carcinoma), HT-29 (colon carcinoma) and PC-3 (prostate carcinoma), were cultured in DMEM media containing 10% heat inactivated fetal calf serum (FCS). On the day of the study the cells were detached from the plate with a trypsin solution. The collected cells were washed and resuspended at a concentration of 0.25×10^6 cells/ml in DMEM containing 10% FCS. 100 μl of cell suspension were added to 96 well plates and the plates were incubated for 3 hours to allow the cells to adhere. […] The plates were then incubated for 24 hours, pulsed with 10 μl of a 100 μCi/ml ^3H-thymidine and incubated for an additional 24 hours (total incubation time 48 hours). The plates were harvested using a 96 well Harvester (Packard Instruments) and counted on a Packard Top Count Counter. Four parameter logistic curves were fitted to the ^3H-thymidine incorporation as a function of drug molarity using Prism software to determine IC50 values.
as §1, with “carcinoma), PC-3 (prostate” for “carcinoma), HT-29 (colon”, “and 22 RV1” for “and PC-3”, “with 1:0” for “with 10”

For the next data set, the system named is BALL-1 cells (CD10neg). Kind of data set: cells. The procedure:
(§2) Suspension cells, BALL-1, Ramos and Namalwa cells were cultured in RPMI media containing 10% heat inactivated fetal calf serum (FCS). On the day of the study, the cells were collected, washed and resuspended at a concentration of 0.5×10^6 cells/ml in RPMI containing 10% FCS. 100 µl of cell suspension was added to 96 well plates. […] Finally 10 μl of a 100 μCi/ml ^3H-thymidine was added per well and the plates were incubated for 24 hours. The plates were harvested using a 96 well Harvester (Packard Instruments) and counted on a Packard Top Count counter. Four parameter logistic curves were fitted to the ^3H-thymidine incorporation as a function of drug molarity using Prism software to determine IC50 values.
(§3) The effect of two known inhibitors of CD10 on prodrug activity in Ramos, LNCaP and Ball-1 cells was evaluated. The IC50 of Suc-βAla-Ile-Ala-Leu-Dox was determined in the presence of increasing concentration of the CD10 inhibitors, phosphoramidon and thiorphan.

The next data set has as its system Ramos cells (CD10pos). Put plainly: cells. The note with it: for Ratio Ball-1:Ramos: ratio of IC50. The protocol: as §2, §3
Data set [4] in a line: Repeat-dose MTD in tumor bearing mice. Type of data set: in vivo. The note with it: mouse, in vivo. The procedure: (§4) In repeat-dose studies in tumor bearing mice, groups of ten mice were dosed with various amounts of prodrug for a total of five doses at either five day or 1 week intervals. […] Thus, the conclusion remains the same in that the prodrugs permit a much greater amount of therapeutic agent to be delivered to the body as a whole and to the vicinity of the target cell.
(§5) As would be expected, when a dose similar to the single-dose MTD (75 mg/kg) (See Example 16) was administered as a repeat-dose it was less well tolerated. […] All treated animals lost weight progressively throughout the study, while the vehicle control group gained up to 12% of the mean initial body weight. (FIG. 20). Two treated animals in the high dose group were terminated due to signs of toxicity, with body weight loss of greater that 20% of their initial weight. […] Thus cumulative toxicity resulted from repeat-dosing at these relatively high dose-levels.

The subject of data set [5] is LS174t tumor bearing mice. Kind of data set: Repeat-dose MTD in tumor bearing mice. The format is in vivo. The protocol: as §4, §5
Another data set deals with Porcine Kidney CD10. Kind of data set: Hydrolysis by purified CD10. Conditions: for % hydrolysis/10 hr: 12.5 μg/mL, 37° C., pH 7.4, product Leu-doxorubicin; for Fraction hydrolyzed relative to standard: standard Suc-βAla-Leu-Ala-Leu-Dox. The format is biochemical. The procedure:
Reaction products were analyzed by HPLC with fluorescence detection. Rates were essentially linear over the incubation period. The observed product was Leu-doxorubicin.

Data set [6] concerns LNCaP (prostate carcinoma) cells. The procedure: as §1
as §1, with “carcinoma), PC-3 (prostate” for “carcinoma), HT-29 (colon”, “and 22 RV1” for “and PC-3”, “with 1:0” for “with 10”
as §3

Another data set has as its system normal mice. Kind of data set: Single dose Maximum Tolerated Dose (MTD) study, 28 days. The note with it: for single-dose MTD, fold higher than doxorubicin alone: 28 days. Type of data set: in vivo. The protocol:
(§6) The mice were observed daily for 28 days and body weights measured twice weekly.
as §6
(§7) In the single dose Maximum Tolerated Dose (MTD) studies, groups of normal mice were administered intravenous bolus doses of the prodrug. The mice were observed daily for 28 days and body weights measured twice weekly. The MTD was estimated to be equal to the highest dose that produced no death in mice after 28 days.

Test in data set [7]: as above
The format is in vivo, mice. Conditions: mouse, in vivo; intravenous bolus, normal mice, 28 days. The protocol: as §6, §6, §7

The mark [8] stands for this setting: Dose 75 mg/kg (Table 19), Q7DX5.

In the case of `COc1cccc2c1C(=O)c1c(O)c3c(c(O)c1C2=O)C[C@@](O)(C(=O)CO)C[C@@H]3O[C@H]1C[C@H](N)[C@H](O)[C@H](C)O1` [Doxorubicin, reference compound], the “Tumor Growth Inhibition (% over control)” value in data set [1] (Dose 5 mg/kg, Q7DX5) is reported as 32.5%. Besides, the “Tumor Weight (mg) D14” value in data set [1] (Dose 5 mg/kg, Q7DX5) is “D14: 567 ± 77 (n = 6) mg”. Also, the “Toxicity (Weight Loss >25%)” value in [1] (male, NCr nude, mouse, in vivo, 5 mg/kg, 60 days) was 4/6. In addition, the IC50 in data set [2] (Cricetulus griseus, CHO, read-out: IC50 Clone #8) worked out at 0.57 µM; in [3] (Homo sapiens, PC-3, 48 hours total incubation, read-out: IC50 PC-3), 0.075 µM; in data set [3] (Homo sapiens, PC-3, Table 6, 48 hours, read-out: IC50 PC-3 CD10−PSA−) it was 0.04 µM; in the data set on BALL-1 cells (CD10neg) (Homo sapiens, BALL-1, 24 h, read-out: IC50 Ball-1), 0.02 µM; in the data set on Ramos cells (CD10pos) (Homo sapiens, Ramos, 24 h, read-out: IC50 Ramos), 0.01 µM; in the data set on Ramos cells (CD10pos) (Homo sapiens, Ramos, read-out: IC50 Ramos) it was 0.01 µM. For the same compound, the MTD at 60 days in [4] (Q 7D × 5, tumor bearing mice) turned out to be 4 mg/kg. The “Repeat Dose MTD, doxorubicin equivalent dose (in parentheses)” value in [5] (Q 7D × 5) is 4 (4) mg/kg. The “RD-MTD as total exposure after 5 doses” value in data set [5] (total of 5 doses) is 20 mg/kg doxorubicin equivalent.

For `CC[C@H](C)[C@H](NC(=O)CCC(=O)O)C(=O)N[C@@H](C)C(=O)N[C@@H](CC(C)C)C(=O)N[C@H]1C[C@H](O[C@H]2C[C@](O)(C(=O)CO)Cc3c(O)c4c(c(O)c32)C(=O)c2c(OC)cccc2C4=O)O[C@@H](C)[C@H]1O` [Suc-Ile-Ala-Leu-Dox], the “% hydrolysis/10 hr” value in the data set with Porcine Kidney CD10 stood at 12.5 % hydrolysis/10 hr. Also, in the data set with Porcine Kidney CD10, the “Fraction hydrolyzed relative to standard” value stood at 1.1. Moreover, the “Ratio PC-3:LNCaP” value in data set [6] (ratio of IC50) is 83. Further, the IC50 in [6] (read-out: IC50 LNCAP, 48 hours total incubation) was 1.1 µM; in data set [3] (48 hours total incubation, read-out: IC50 PC-3), 88 µM; in the data set with BALL-1 cells (CD10neg) (read-out: IC50 Ball-1, 24 hours) it was 26 µM; in the data set with Ramos cells (CD10pos) (read-out: IC50 Ramos, 24 hours), 6.43 µM. Moreover, the “Ratio Ball-1:Ramos” value in the data set with Ramos cells (CD10pos) was determined as 4. Moreover, the “single-dose MTD, fold higher than doxorubicin alone” value with normal mice is given as “at least 16 fold”. Besides, the “28-day single-dose Maximum Tolerated Dose (MTD)” value in the data set on normal mice (intravenous bolus, normal mice) is reported as > 117 mg/kg. In addition, the MTD in [7] was ≥ 66 mg/kg.

`CC[C@H](C)[C@H](NC(=O)CCNC(=O)CCC(=O)O)C(=O)N[C@@H](C)C(=O)N[C@@H](CC(C)C)C(=O)N[C@H]1C[C@H](O[C@H]2C[C@](O)(C(=O)CO)Cc3c(O)c4c(c(O)c32)C(=O)c2c(OC)cccc2C4=O)O[C@@H](C)[C@H]1O` [Suc-βAla-Ile-Ala-Leu-Dox]: the “% hydrolysis/10 hr” value with Porcine Kidney CD10 turned out to be 22.1 % hydrolysis/10 hr. Further, the “Fraction hydrolyzed relative to standard” value in the data set with Porcine Kidney CD10 stood at 2.0. Besides, the results for the IC50 (in data set [6] (48 h); in the data set with BALL-1 cells (CD10neg) (24 h); with Ramos cells (CD10pos) (24 h)) were 0.15 µM, 50 µM and 0.42 µM, respectively. Also, the “Ratio Suc-β-Ala-Ile-Ala-Leu/Dox” value is given as 3 in data set [6] (LnCap, ratio of IC50) and 15 in data set [2] (Clone #8, ratio of IC50). Besides, in data set [6] (ratio of IC50), the “Ratio PC-3:LNCaP” value was 300. Moreover, the “IC50 difference to Dox” value in data set [2] (CD10 transfected CHO cells) is on record as ~16 fold. Further, the “Ratio Ball-1:Ramos” value in the data set on Ramos cells (CD10pos) came to 120. Also, the MTD in data set [4] (total of 5 doses, read-out: RD-MTD as total exposure after 5 doses) is ~150 mg/kg; in [7], 40 mg/kg. In data set [5] (68 mg/kg Q5DX5, groups of ten), the “animals terminated due to signs of toxicity” value is reported as “Two”. Further, the “animals euthanized due to treatment-related toxicity” value in the data set on normal mice (100 mg/kg, Day 21, groups of five) is “two”; with normal mice (125 mg/kg, Day 14, groups of five) it was “four”. The “single-dose MTD, fold higher than doxorubicin alone” value with normal mice is “approximately 10 fold”.

Consider `COc1cccc2c1C(=O)c1c(O)c3c(c(O)c1C2=O)C[C@@](O)(C(=O)CO)C[C@@H]3O[C@H]1C[C@H](NC(=O)[C@H](CC(C)C)NC(=O)[C@H](C)NC(=O)[C@H](CC(C)C)NC(=O)CCNC(=O)CCC(=O)O)[C@H](O)[C@H](C)O1` [Suc-βAla-Leu-Ala-Leu-Dox], for which, in [1] (setting [8]), the “Tumor Growth Inhibition (% over control) D14” value is recorded as “D14: 53.4** %”, the “Tumor Growth Inhibition (% over control) D21” value is given as “D21: 66.2** %”, the “Tumor Weight (mg) D14” value was “D14: 391 ± 70 (n = 7) mg” and the “Tumor Weight (mg) D21” value was “D21: 318 ± 67 (n = 7) mg”. Further, the “Toxicity (Weight Loss >25%)” value in data set [1] (Dose 75 mg/kg (Table 19), Q7DX5, mice affected/total) was 7/7. Further, in the data set on Porcine Kidney CD10, the “% hydrolysis/10 hr” value was found to be 10.9 % hydrolysis/10 hr and the “Fraction hydrolyzed relative to standard” value came out at 1.0. This compound also returned an IC50 in data set [6] of 0.51 µM. Moreover, in data set [6] (48 h), the 50% inhibitory concentration (IC50) was 0.87 µM. Also, the “shift of IC50” value in data set [6] (LNCaP cells treated with 100 nM of phosphoramidon (data not shown)) is on record as 7 fold. The “Ratio PC-3:LNCaP” value in data set [6] (ratio of IC50) turned out to be 32. The same compound had a 50% inhibitory concentration (IC50) in the data set on BALL-1 cells (CD10neg) (24 h) of 17 µM. Besides, in the data set on Ramos cells (CD10pos), the half-maximal inhibitory concentration (IC50) is 0.84 µM and the “Ratio Ball-1:Ramos” value amounted to 2. The same compound yielded an IC50 with Ramos cells (CD10pos) (24 h) of 6.93 µM.

The term IC50 denotes the concentration at which inhibition is half-maximal.
